Source: patent US20130149383A1, “SUSTAINED RELEASE PARTICLE FORMULATIONS OF GUAIFENESIN” (priority 2011, published 2013)
Values after ≈ are worked out from the molar mass of the structure shown.

Legend:
[1] = cited from earlier work
[2] = Equilibrium solubility determination in liquid vehicle (HPLC); type: physicochemical; conditions: 40 °C, thermodynamic from solid; guaifenesin in liquid vehicle, 40° for two days, n=3
Protocol: The objective of this example was to determine the […] using “HPLC protocol”. About 500 mg of guaifenesin was added into 20 ml of a liquid vehicle. The suspend solution were then shaken and then placed at 40° for two days. The supernatant was then filtered off using a syringe with a 0.45 μm filter, and diluted so that the absorbencies fell within the UV (25-fold dilution). The diluted clear solutions were equilibrium solubility samples, termed as “samples” in the “HPLC protocol’. The “HPLC protocol” was then followed (See below).
A 20 mL of stock solution of the drug was prepared in DI water at a concentration of 1 mg/mL. The solution was left at room temperature for 5 min to get the drug dissolved. The stock solution was appropriately diluted to get several concentrations ranging from 0.1 mg/mL to 1 mg/mL (See FIG. 1). Samples were prepared by appropriately diluting the samples collected using “USP dissolution protocol” to ensure that the drug concentration level falls within the range of the standard curve (e.g., 2× dilution).
HPLC was prepared by first washing the column with the wash buffer (acetonitrile:water 50:50 (v/v)) for 10 min. […]

- solubility thermodynamic at 2 days [2]: 9590 ± 340 µg/mL (≈ 48.4 mM)
Structure (SMILES): COc1ccccc1OCC(O)CO (centres unmarked) [Guaifenesin, 3-(2-methoxyphenoxy)-1,2-propanediol]
- water solubility [1]: highly water soluble
